Data reported in patent US20120095036A1, “NOVEL SUBSTITUTED INDAZOLE AND AZA-INDAZOLE DERIVATIVES AS GAMMA SECRETASE MODULATORS” (priority 2009, published 2012).

Experiments:
Aβ42 [1] = assay: Method 1: Aβ42 sandwich ELISA on media of SKNBE2 cells carrying APP 695 wild type (γ-secretase-modulating activity); assay type: cell-based; settings: Homo sapiens, SKNBE2 cells APP 695 wild type, 18 hours
Method: (§1) Screening was carried out using SKNBE2 cells carrying the APP 695—wild type, grown in Dulbecco's Modified Eagle's Medium/Nutrient mixture F-12 (DMEM/NUT-mix F-12) (HAM) provided by Gibco (cat no. 31330-38) containing 5% Serum/Fe supplemented with 1% non-essential amino acids. Cells were grown to near confluency.
(§2) The screening was performed using the assay as described in Citron et al (1997) Nature Medicine 3: 67. Briefly, cells were plated in a 96-well plate at about 10^5 cells/ml one day prior to addition of compounds. Compounds were added to the cells in Ultraculture (Lonza, BE12-725F) supplemented with 1% glutamine (Invitrogen, 25030-024) for 18 hours. The media were assayed by two sandwich ELISAs, for Aβ42 and Aβtotal. Toxicity of the compounds was assayed by WST-1 cell proliferation reagent (Roche, 1 644 807) according to the manufacturer's protocol.
To quantify the amount of Aβ42 in the cell supernatant, commercially available Enzyme-Linked-Immunosorbent-Assay (ELISA) kits were used (Innotest® β-Amyloid(1-42), Innogenetics N.V., Ghent, Belgium). The Aβ42 ELISA was performed essentially according to the manufacturer's protocol. Briefly, the standards (dilutions of synthetic A131-42) were prepared in polypropylene Eppendorf with final concentrations of 8000 down to […] (½ dilution step). Samples, standards and blanks (100 μl) were added to the anti-Aβ42-coated plate supplied with the kit (the capture antibody selectively recognizes the C-terminal end of the antigen). The plate was allowed to incubate 3 h at 25° C. in order to allow formation of the antibody-amyloid complex. Following this incubation and subsequent wash steps a selective anti-A13-antibody conjugate (biotinylated 3D6) was added and incubated for a minimum of 1 hour in order to allow formation of the antibody-Amyloid-antibody-complex. After incubation and appropriate wash steps, a Streptavidine-Peroxidase-Conjugate was added, followed 30 minutes later by an addition of 3,3′,5,5′-tetramethylbenzidine (TMB)/peroxide mixture, resulting in the conversion of the substrate into a coloured product. This reaction was stopped by the addition of sulfuric acid (0.9 N) and the colour intensity was measured by means of photometry with an ELISA-reader with a 450 nm filter.
(§3) To obtain the values reported in Table 3a, the sigmoidal dose response curves were analysed by computerised curve-fitting, with percent of inhibition plotted against compound concentration. A 4-parameter equation (model 205) in XLfit was used to determine the IC50. The top and the bottom of the curve were fixed to 100 and 0, respectively, and the hill slope was fixed to 1. The IC50 represents the concentration of a compound that is required for inhibiting a biological effect by 50% (Here, it is the concentration where Aβ peptide level is reduced by 50%).

Aβ42 [2] = assay: Method 2: Aβ42 Alphalisa on supernatant of SKNBE2 cells carrying APP 695 wild type; assay type: cell-based; settings: Homo sapiens, SKNBE2 cells APP 695 wild type, overnight
Method: as §1, with “Invitrogen” for “Gibco”, “10371-029)” for “31330-38)”, “acids, 1-glutamine 2 mM, Hepes 15 mM, penicillin 50 U/ml (units/ml) en streptomycin 50 μg/ml.” for “acids.”
(§4) The screening was performed using a modification of the assay as described in Citron et al (1997) Nature Medicine 3: 67. Briefly, cells were plated in a 384-well plate at 10^4 cells/well in Ultraculture (Lonza, BE12-725F) supplemented with 1% glutamine (Invitrogen, 25030-024), 1% non-essential amino acid (NEAA), penicillin 50 U/ml en streptomycin 50 μg/ml in the presence of test compound at different test concentrations. The cell/compound mixture was incubated overnight at 37° C., 5% CO2, The next day the media were assayed by two sandwich immuno-assays, for Aβ42 and Aβtotal.
(§5) Aβtotal and Aβ42 concentrations were quantified in the cell supernatant using the Aphalisa technology (Perkin Elmer). Alphalisa is a sandwich assay using biotinylated antibody attached to streptavidin coated donorbeads and antibody conjugated to acceptor beads. In the presence of antigen, the beads come into close proximity. The excitation of the donor beads provokes the release of singlet oxygen molecules that trigger a cascade of energy transfer in the acceptor beads, resulting in light emission. To quantify the amount of Aβ42 in the cell supernatant, monoclonal antibody specific to the C-terminus of Aβ42 (JRF/cAβ42/26) was coupled to the receptor beads and biotinylated antibody specific to the N-terminus of AB (JRF/AβN/25) was used to react with the donor beads. To quantify the amount of Aβtotal in the cell supernatant, monoclonal antibody specific to the N-terminus of AB (JRF/AβN/25) was coupled to the receptor beads and biotinylated antibody specific to the mid region of Aβ (biotinylated 4G8) was used to react with the donor beads.
(§6) To obtain the values reported in Table 3b, the data were calculated as percentage of the maximum amount of amyloid Beta 42 measured in the absence of the test compound. The sigmoidal dose response curves were analyzed using non-linear regression analysis with percentage of the control plotted against the log concentration of the compound. A 4-parameter equation was used to determine the IC50.

Aβtotal [3] = assay: Method 2: Aβtotal Alphalisa on supernatant of SKNBE2 cells carrying APP 695 wild type; assay type: cell-based; settings: Homo sapiens, SKNBE2 cells APP 695 wild type, overnight
Method: as §1, with “Invitrogen” for “Gibco”, “10371-029)” for “31330-38)”, “acids, 1-glutamine 2 mM, Hepes 15 mM, penicillin 50 U/ml (units/ml) en streptomycin 50 μg/ml.” for “acids.”
as §4, §5, §6

Aβtotal [4] = assay: Method 1: Aβtotal sandwich ELISA on media of SKNBE2 cells carrying APP 695 wild type; assay type: cell-based; settings: Homo sapiens, SKNBE2 cells APP 695 wild type, 18 hours
Method: as §1, §2
To quantify the amount of Aβtotal in the cell supernatant, samples and standards were added to a 6E10-coated plate. The plate was allowed to incubate overnight at 4° C. in order to allow formation of the antibody-amyloid complex. Following this incubation and subsequent wash steps a selective anti-AB-antibody conjugate (biotinylated 4G8) was added and incubated for a minimum of 1 hour in order to allow formation of the antibody-Amyloid-antibody-complex. After incubation and appropriate wash steps, a Streptavidine-Peroxidase-Conjugate was added, followed 30 minutes later by an addition of Quanta Blu fluorogenic peroxidase substrate according to the manufacturer's instructions (Pierce Corp., Rockford, Il).
as §3

IC50 (Aβ42 [1]) [µM]	IC50 (Aβ42 [2]) [µM]	melting point [°C]	IC50 (Aβtotal [3]) [µM]	IC50 (Aβtotal [4]) [µM]	Structure (SMILES)
0.359	0.479	175	> 10	–	Cc1ncc(-c2ccc(Nc3cccc4cn(-c5ccc6c(c5)OCO6)nc34)cc2)o1 [Compound 34, 2-(1,3-benzodioxol-5-yl)-N-[4-(2-methyl-5-oxazolyl)phenyl]-2H-indazol-7-amine]
0.186	0.032	164.4	5.5	> 3	COc1cc(Nc2cccc3c(C)n(-c4ccc(F)cc4)nc23)ccc1-c1cnc(C)o1 [Compound 40, 2-(4-fluorophenyl)-N-[3-methoxy-4-(2-methyl-5-oxazolyl)phenyl]-3-methyl-2H-indazol-7-amine]
0.18	0.177	137	> 10	> 10	Cc1ncc(-c2ccc(Nc3cccc4c(CN)n(-c5ccc(F)cc5)nc34)cc2)o1 [Compound 8, 2-(4-fluorophenyl)-7-[[4-(2-methyl-5-oxazolyl)phenyl]amino]-2H-indazole-3-methanamine]
2.13	> 3	237.9	> 3	> 3	Cc1ncc(-c2ccc(Nc3cccc4c(C#N)n(-c5ccc(F)cc5)nc34)cc2)o1 [Compound 32, 2-(4-fluorophenyl)-7-[[4-(2-methyl-5-oxazolyl)phenyl]amino]-2H-indazole-3-carbonitrile]

Further lines, the compound ahead of its results:

Structure (SMILES)	IC50 (Aβ42 [1]) [µM]	IC50 (Aβ42 [2]) [µM]	melting point [°C]	IC50 (Aβtotal [3]) [µM]	IC50 (Aβtotal [4]) [µM]
Cc1ncn(-c2ccc(Nc3cccc4c(C)n(-c5ccc(F)cc5F)nc34)cc2F)n1 [Compound 23, 2-(2,4-difluorophenyl)-N-[3-fluoro-4-(3-methyl-1H-1,2,4-triazol-1-yl)phenyl]-3-methyl-2H-indazol-7-amine]	1.04	0.724	146.9	> 10	–
COc1cccc(-n2nc3c(Nc4ccc(-c5cnc(C)o5)cc4)nccc3c2C)c1 [Compound 35, 2-(3-methoxyphenyl)-3-methyl-N-[4-(2-methyl-5-oxazolyl)phenyl]-2H-pyrazolo[3,4-c]pyridin-7-amine]	0.382	0.166	185	> 10	> 3
COc1cccc(-n2nc3c(Nc4ccc(-c5cnn(C)c5)c(F)c4)cccc3c2C)c1 [Compound 7, N-[3-fluoro-4-(1-methyl-1H-pyrazol-4-yl)phenyl]-2-(3-methoxyphenyl)-3-methyl-2H-indazol-7-amine]	0.229	0.055	239.1	> 10	> 3
Cc1ncc(-c2ccc(Nc3cccc4cn(CC(F)(F)F)nc34)cn2)o1 [Compound 44, N-[6-(2-methyl-5-oxazolyl)-3-pyridinyl]-2-(2,2,2-trifluoroethyl)-2H-indazol-7-amine]	0.513	0.363	153.4	> 10	> 3
Cc1ncn(-c2ccc(Nc3cccc4c(C)n(CCCC(F)(F)F)nc34)cc2F)n1 [Compound 22, N-[3-fluoro-4-(3-methyl-1H-1,2,4-triazol-1-yl)phenyl]-3-methyl-2-(4,4,4-trifluorobutyl)-2H-indazol-7-amine]	> 3	> 3	135.6	> 3	> 3
COc1cc(Nc2nc(C)cc3cn(CC(F)(F)F)nc23)ccc1-n1cnc(C)n1 [Compound 21, N-[3-methoxy-4-(3-methyl-1H-1,2,4-triazol-1-yl)phenyl]-5-methyl-2-(2,2,2-trifluoroethyl)-2H-pyrazolo[3,4-c]pyridin-7-amine]	–	> 3	203.4	> 3	–
